According to patent US20100256104A1, “NOVEL AMIDE COMPOUNDS” (ASTRAZENECA R&D, priority 2009, published 2010):

Each compound was assayed against T1, recombinant human GR (Homo sapiens, UniProt P04150) (assay: Human Glucocorticoid Receptor (GR) Assay, fluorescence polarization competition with GS Red tracer). Details: 2 hours at room temperature, 100% control 10 μM Dexamethasone, XLfit model 205, read-out: Inhibition of GR binding, IC50.
T1 construct: purchased Panvera/Invitrogen P2812 (kit P2893)
T1 sequence (P04150 1-777): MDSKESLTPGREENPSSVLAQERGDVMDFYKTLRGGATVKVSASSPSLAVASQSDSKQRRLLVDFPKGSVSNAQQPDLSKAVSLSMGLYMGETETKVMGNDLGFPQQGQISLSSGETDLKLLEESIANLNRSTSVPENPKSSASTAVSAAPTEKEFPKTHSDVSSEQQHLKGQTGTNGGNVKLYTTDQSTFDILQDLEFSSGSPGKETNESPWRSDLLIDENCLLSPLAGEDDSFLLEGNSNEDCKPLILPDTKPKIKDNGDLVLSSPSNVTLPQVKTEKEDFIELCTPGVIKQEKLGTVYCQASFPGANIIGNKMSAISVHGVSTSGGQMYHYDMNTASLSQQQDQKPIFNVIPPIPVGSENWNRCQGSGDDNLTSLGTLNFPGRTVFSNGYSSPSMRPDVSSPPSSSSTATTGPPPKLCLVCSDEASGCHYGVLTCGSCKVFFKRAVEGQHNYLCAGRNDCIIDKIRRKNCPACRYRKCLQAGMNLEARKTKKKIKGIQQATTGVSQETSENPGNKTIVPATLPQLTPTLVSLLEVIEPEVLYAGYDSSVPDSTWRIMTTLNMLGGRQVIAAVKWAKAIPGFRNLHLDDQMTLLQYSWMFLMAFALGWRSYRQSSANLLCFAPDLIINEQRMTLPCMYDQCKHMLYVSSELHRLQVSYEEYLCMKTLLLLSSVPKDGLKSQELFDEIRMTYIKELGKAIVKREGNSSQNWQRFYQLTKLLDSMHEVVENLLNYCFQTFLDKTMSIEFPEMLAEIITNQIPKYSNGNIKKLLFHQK
How it was run: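 Fluorescence polarization competition: recombinant human GR with GS Red tracer, stabilizing peptide and DTT in potassium phosphate/sodium molybdate/EDTA buffer. 2 h in dark at room temperature, read at ex 530/em 590 nm. Controls: DMSO (0%) and 10 μM dexamethasone (100%).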

Row | IC50 [nM] | Structure (SMILES)
1 | 9 | COCC(=O)O[C@]1(C(=O)SCF)CC[C@H]2[C@@H]3CCC4=Cc5c(cnn5-c5cccc(C(=O)N6CCC[C@@H]6C(N)=O)c5)C[C@]4(C)[C@H]3[C@@H](O)C[C@@]21C [Example 16, (1R,3aS,3bS,10aR,10bS,11S, 12aS)-7-(3-{[(2R)-2-carba-moylpyrrolidin-1-yl]carbonyl}phenyl)-1-{[(fluoromethyl)sulfanyl]carbonyl}-11-hydroxy-10a,12a-dimethyl-1,2,3,3a,3b,4,5,7,10,10a,10b, 11,12,12a-tetradecahydro-cyclopenta[5,6]naphtho[1,2-f] indazol-1-yl methoxyacetate]
2 | 5.3 | COCC(=O)O[C@]1(C(=O)SCF)[C@H](C)C[C@H]2[C@@H]3CCC4=Cc5c(cnn5-c5cccc(C(=O)NCC(N)=O)c5)C[C@]4(C)[C@@]3(F)[C@@H](O)C[C@@]21C [Example 45, (1R,2R,3aS,3bS, 10aS,10bR,11S,12aS)-7-{3-[(2-amino-2-oxoethyl)carbamoyl]phenyl}-10b-fluoro-1-{[(fluoromethyl)sulfanyl]carbonyl}-11-hydroxy-2,10a,12a-trimethyl-1,2,3,3a,3b,4,5,7,10, 10a,10b,11,12,12a-tetradecahydrocyclo-penta[5,6]naphtho [1,2-f]indazol-1-yl methoxyacetate]
3 | 4.3 | CCC(=O)O[C@]1(C(=O)SCC#N)CC[C@H]2[C@@H]3CCC4=Cc5c(cnn5-c5cccc(C(=O)NC6CCS(=O)(=O)C6)c5)C[C@]4(C)[C@H]3[C@@H](O)C[C@@]21C (stereo partly drawn) [Example 12, (1R,3aS,3bS,10aR,10bS,11S,12aS)-1-{[(Cyanomethyl)sulfanyl]carbonyl}-7-{3-[(1,1-dioxidotetrahydrothiophen-3-yl)carbamoyl]phenyl}-11-hydroxy-10a,12a-dimethyl-1,2,3,3a,3b,4,5,7,10,10a,10b,11,12,12a-tetradecahydrocyclopenta[5,6]naphtho[1,2-f]indazol-1-yl propanoate]
